Measured values: patent US6696466B1, “Methods of treating select neuronal inflammatory disorders using hydroxyalkylquinolines” (priority 2000, dated 2004)
Several values for one entry are separate records, joined by “and”; a condition that tells them apart may be missing. Equal values may be shown once. Entries after “also recorded” stand apart in the source; their conditions may differ.

What was measured:
Format in all cases: in vivo, human
[1] = test system: Herpes simplex I and II (HSV I and II); experiment: Treatment and suppression of cold sores in patients; conditions: for time to resolution of cold sore: Singulair resumed vs the patient's previous sores treated with antivirals
Protocol: Patient had recently discontinued use of Singulair® as a treatment for asthma. […] The cold sore resolved in three days after treatment with Singulair® was resumed. The rate of resolution was faster than the resolution of previous sores which were treated with antiviral treatments such as those marketed under the trademarks Zovirax® or Famvir® (approximately seven to ten days). During the subsequent two years, patient took Singulair® on a daily basis (10 mg, twice a day).
No cold sore was present at the time therapy was started. […] Within five days of termination of treatment, a cold sore developed.

carpal tunnel syndrome = experiment: Treatment of patients with carpal tunnel syndrome; conditions: for carpal tunnel symptoms, response to treatment: 10 mg per day, taken orally
Protocol: A carpenter who was experiencing the symptoms of carpal tunnel syndrome was treated with 10 mg of Singulair® per day, taken orally, for four weeks. They continued to perform their daily occupational activities throughout the period of treatment. […] Patient was then treated for short courses of 10 mg of Singulair® per day, whenever symptoms were present, until symptoms subsided.
A patient who worked as a billing clerk had carpal tunnel symptoms which had not responded to non-surgical methods of treatment. Patient was treated with Singulair® at 10 mg daily, taken orally.
A patient who works as a data entry clerk, experienced severe carpal tunnel symptoms. They ceased their occupational activities and began treatment with Singulair® at 10 mg per day, taken orally.
Patient was an insurance clerk who experienced severe carpal tunnel symptoms which had not abated, even after carpal tunnel decompression surgery. For years following surgery, they had experienced severe carpal tunnel symptoms.
Patient was an assembly line worker at an automobile production facility who was experiencing symptoms of carpal tunnel syndrome was treated with 10 mg of Singulair® per day taken orally. […] They required continuous treatment with 10 mg of Singulair® per day taken orally to maintain remission of their symptoms.

cubital tunnel syndrome = experiment: Treatment of a patient with cubital tunnel syndrome; conditions: 10 mg daily, taken orally, four weeks; single patient, prior NSAIDs and splints failed
Protocol: Patient was a golfer who experienced symptoms of cubital tunnel syndrome. […] Patient was treated with Singulair® at 10 mg daily, taken orally. […] No further treatment was required despite their return to their regular golfing activity.

thoracic outlet syndrome = experiment: Treatment of a patient with thoracic outlet syndrome; conditions: 10 mg per day, taken orally, four weeks; single patient
Protocol: Patient was treated with Singulair® at 10 mg per day taken orally. […] No further treatment was required.

[2] = test system: post-herpetic neuralgia due to a latent Herpes infection; experiment: Treatment of post-herpetic neuralgia in patients; conditions: 10 mg per day, taken orally; single patient, neuralgia developed despite initial anti-viral agents
Protocol: (§1) Patient had post-herpetic neuralgia due to a latent Herpes infection. Neuralgia developed despite initial treatment with anti-viral agents as per standard treatment recommendations. Patient began treatment with Singulair® (10 mg per day, taken orally). The post-herpetic neuralgia resolved in ten days. No further treatment was required.
as §1, with “had postherpetic” for “had post-herpetic”, “in 14” for “in ten”

[3] = test system: natural graying process of scalp hair; experiment: Inhibition of graying of scalp hair in a patient; conditions: 10 mg per day, taken orally, two years and four months continuous; single patient with graying of temple regions
From the text: Patient had noted the onset of graying of the temple regions of their hair.

Row | Compound | time to resolution of cold sore ([1]; single patient) | carpal tunnel symptoms, response to treatment (carpal tunnel syndrome; four weeks, single patient) | carpal tunnel symptoms, response to treatment (carpal tunnel syndrome; six weeks, single patient, occupational activities continued) | carpal tunnel symptoms after cessation of treatment (carpal tunnel syndrome; after treatment was stopped, single patient) | carpal tunnel symptoms at follow-up (carpal tunnel syndrome; follow-up as in each example: forty weeks (Ex. 2), recheck two weeks after return to work on treatment (Ex. 3), continuing treatment (Ex. 4)) | carpal tunnel symptoms on resumption of treatment (carpal tunnel syndrome; treatment resumed after relapse, single patient) | cubital tunnel symptoms, response to treatment (cubital tunnel syndrome) | thoracic outlet syndrome symptoms, response to treatment (thoracic outlet syndrome) | cold sores under continuous daily treatment ([1]; 10 mg per day orally, ten months, patient with history of average two cold sores per month) | development of new cold sore under daily treatment ([1]; 10 mg, twice a day, two years, high ultraviolet light exposure, single patient) | time to cold sore after termination of treatment ([1]; after ten months of treatment, same patient) | cold sores after resumption of treatment ([1]; thirteen months after resumption of treatment, same patient) | time to resolution of post-herpetic neuralgia [2] | progression of graying of scalp hair [3]
1 | CC(=O)OCC(CCn1cnc2cnc(N)nc21)COC(C)=O [Famvir®] | seven to ten | – | – | – | – | – | – | – | – | – | – | – | – | –
2 | CC(C)(O)c1ccccc1CC[C@@H](SCC1(CC(=O)O)CC1)c1cccc(C=Cc2ccc3ccc(Cl)cc3n2)c1 [Singulair®, 1-(((1(R)-(3-(2-(7-chloro-2-quinolinyl)ethenyl)phenyl)-3-(2-(2-hydroxy-2-propyl)phenyl)propyl)thio)methyl)cyclopropaneacetic acid] | three | complete remission of symptoms; also recorded: symptoms had completely resolved | complete resolution of their carpal tunnel symptoms; also recorded: symptoms abated | the symptoms recurred; also recorded: remained symptom-free thereafter; also recorded: symptoms rapidly returned | remains symptom-free | Symptoms abated | Symptoms were entirely abated | symptoms had completely resolved | remained free of cold sores | no new sore developed | five | remained free of cold sores | ten and 14 days | No progression of the graying process
3 | Nc1nc2c(ncn2COCCO)c(=O)[nH]1 [Zovirax®] | seven to ten | – | – | – | – | – | – | – | – | – | – | – | – | –
